Test results from US6642003B2, “Human glucose-dependent insulin-secreting cell line” (Cedars-Sinai Medical Center, priority 2001, dated 2003).

Legend:
[1] = system: glucose-intolerant aging Wistar rats; details: cited from earlier work
PANC-1/IDX-1 cells [2] = assay: Immunocytochemistry and immunofluorescence for insulin, PANC-1/IDX-1 cells; type: cell-based, human; details: GLP-1 10 nM, 72 h
Protocol: (§1) PANC-1 cells were transfected with a pcDNA3 construct (Invitrogen; Carlsbad, Calif.) harboring the wild-type full-length IDX-1 cDNA using LipoTAXI (Catalog N. 204110; Mammalian Transfection Kit, Stratagene; La Jolla, Calif.). Control cells were transfected with the vector alone. The selection of positive (i.e. transfected) cells was carried out by culturing the cells in the presence of 400 μg/ml of G418 sulfate (GN-04, Omega; Tarzana, Calif.).
(§2) Cells were cultured on monocoated chamber slides (Nalge Nunc International; Naperville, Ill.) in the presence of GLP-1 (10 nM), or vehicle, for 72 h.
(§3) For the detection of insulin, cells were washed and fixed with 3% paraformaldehyde for 4 h, at room temperature in PBS, solubilized with 0.1% (vol/vol) Triton X-100 in PBS for 5 min. Cells were then incubated sequentially with an anti-insulin antibody and a secondary antibody, as described by the manufacturer (Biomeda Corp.; Foster City, Calif.). The cells were examined using a Ziess Axiophoto microscope (New York, N.Y.).
Insulin immunofluoresce, for co-immunostaining with IDX-1, was carried on using the […], while the secondary antibody was a goat anti-guinea pig IgG (Molecular Probes, Inc.). The cells were examined using a using a fluorescent microscope (E-800; Nikon, Tokyo).

PANC-1 cells [3] = assay: Immunocytochemistry for insulin, parental PANC-1 cells; type: cell-based, human; details: presence or absence of GLP-1
Protocol: as §2, §3

PANC-1 cells [4] = assay: Flow cytometric (FACS) analysis for insulin, parental PANC-1 cells; type: cell-based, human; details: presence or absence of GLP-1; equivalent to assay background
Protocol: (§4) For fluorescence-activated cells sorting (FACS) analysis, cells were cultured in the presence of GLP-1 (10 nM), or vehicle, for 72 h, then washed with cold PBS (pH 7.4; three times) and incubated overnight, on ice, in PBS with 2% paraformaldehyde. After centrifugation, the cell pellet was resuspended in 400 μl of cold 0.1% Triton diluted in FACS buffer (PBS with 2% FCS). After several centrifugation and washes, the cells were resuspended in the assay buffer with of 10 μl of fluorescent-conjugated insulin antibody (Cat N. FM205, FITC: Chromaprobe, Inc; Mountain View, Calif.), in the presence of 10 μl of blocking antibody (anti-mouse IgG; Organon Teknika-Cappel, West Chester, Pa.). Control samples were treated with PBS, without the primary antibody, and then incubated with an isotope-matched FITC-conjugated control antibody (murine IgG; Chromaprobe Inc., Mountain View, Calif.). Flow cytometric analysis was performed with a FACScan[R] cytometer, using the LYSYS II program, and by fluorescence microscopy, as is well known in the art. See, e.g., E. Elstner, M. Linker-Israeli, J. Le, T. Umiel, P. Michl, J. W. Said, L. Binderup, J. C. […]

PANC-1/IDX-1 cells [5] = assay: Morphological changes (hematoxylin and eosin), PANC-1/IDX-1 cells; type: cell-based, human; details: GLP-1 10 nM for 72 h
Protocol: as §1
Hematoxylin and eosin staining was employed, in some experiments, to show the morphological changes observed under the experimental conditions described below.

PANC-1/IDX-1 cells [6] = assay: Flow cytometric (FACS) analysis for insulin, PANC-1/IDX-1 cells; type: cell-based, human; details: GLP-1 10 nM, 72 h
Protocol: as §1
as §4, with “Control samples were treated with PBS, without the primary antibody, and then incubated with an isotope-matched FITC-conjugated control antibody (murine IgG; Chromaprobe Inc., Mountain View, Calif.).” left out, “art.” for “art. See, e.g., E. Elstner, M. Linker-Israeli, J. Le, T. Umiel, P. Michl, J. W. Said, L. Binderup, J. C.”

PANC-1/IDX-1 cells [7] = assay: Immunofluorescence for IDX-1, PANC-1/IDX-1 cells; type: cell-based, human
Protocol: as §1, §2
For the detection of IDX-1, slightly different conditions were used. Briefly: the concentration of paraformaldehyde was decreased to 2%, and the concentration of Triton to permeabilize the cells was raised to 0.2% Triton-X-100. Cells were then washed with 0.01 M PBS three times for 3-5 min, and non-specific binding was inhibited by using 5% chick serum in 0.01 M PBS, at room temperature for 60 min in a humid chamber. […] The percentage of IDX-1 containing cells was evaluated by counting the number of IDX-1 “positive” cells divided by the total number of cells identified by nuclear staining.

glucagon-like peptide-1 [GLP-1]
effect on glucose tolerance [1]: restored normal glucose tolerance | effect on islet cell proliferation [1]: induced islet cell proliferation | insulin immunostaining (PANC-1/IDX-1 cells [2]): capable of synthesizing insulin | IDX-1 containing cells also positive for intracellular insulin (PANC-1/IDX-1 cells [2]; double immunofluorescence): Approximately 85% | weakly IDX-1 positive cells not stained by anti-insulin antibody (PANC-1/IDX-1 cells [2]; double immunofluorescence): ~20% | insulin immunostaining (PANC-1 cells [3]): No positive insulin immunostaining | cells containing insulin in the cytoplasm (PANC-1 cells [4]): 1.4% | morphological change: cell aggregation (PANC-1/IDX-1 cells [5]): further promoted the tendency of forming few-cells aggregates | morphological change: cell size (PANC-1/IDX-1 cells [5]): increase in the size of individual cells | cultured cells converted from insulin negative to insulin positive (PANC-1/IDX-1 cells [6]): 61.7% | effect on expression level of IDX-1 (PANC-1/IDX-1 cells [7]; GLP-1 10 nM for 72 h): further increase | cells expressing IDX-1 (PANC-1/IDX-1 cells [7]; GLP-1 or vehicle, 400 cells counted): ~100%
